Assay results taken from US20240092799A1, “MNK INHIBITORS” (Hepagene Therapeutics (HK) Limited, priority 2020, published 2024).
Counter-ions that a name gives are not always drawn. Each block holds one compound with its values, some of them ahead of it.

Columns and labels:
MNK2 = MNK2 (Homo sapiens (Human), UniProt Q9HBH9); assay: MNK Biochemical Enzymatic Assay (ADP-Glo), MNK2 binding assay
In short: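 Human MNK1 or MNK2 was preincubated with a 10-point, 1:3 serial dilution of compound for 15 min at 25 °C. Substrate was then added and the reaction ran 60 min at 25 °C. ADP formed was read by ADP-Glo luminescence, and IC50 came from non-linear regression.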

TMD-8 cell p-IF4E = assay: p-eIF4E Signaling Cellular Assay (CisBio HTRF) in TMD-8 cells; assay type: cell-based; conditions: Homo sapiens, TMD8, 40 min, 40 min treatment
Method: p-eIF4E Signaling Cellular Assay. Phosphorylated eIF4E is assayed using the CisBio p-Eif4E HTRF assay kit. Reagents and equipment used in the assay are listed below, followed by the protocol.
Cell medium: RPMI 1640+10% FBS+1*PS, TMD-8 were cultured as recommended and assayed in exponential growth phase. • a) Plate 30 μL of cells in 384 white assay plate in appropriate medium and proper cell density (20 k/well) based on Optimization at 37° C. under 5% CO2 atmosphere • b) Dispense 90 nL of compounds diluted in DMSO and treat for 40 min at 37° C. under 5% CO2 atmosphere • c) Remove cell supernatant by flicking the plate • d) Add 16 μL of supplemented lysis buffer (1×) for 30 minutes at RT under shaking • e) Add 4 μL of premixed antibody solutions prepared in the detection buffer. Cover the plate with a plate sealer. Incubate 0/N at RT • f) Read the fluorescence emission at 665 nm and 620 nm on Envision • g) Data analysis • (1) Ratio […] signal is calculated for each well • (2) % Inhibition is calculated as follow:
% inhibition=100−(Signalcmpd-SignalAve_PC)/(SignalAve_VC-SignalAve_PC)×100. • (3) Calculate IC50 and Plot effect-dose curve of cmpds:
Calculate IC50 by fitting % Inhibition values and log of compound concentrations to nonlinear regression (dose response−variable slope) with Graphpad 8.0.
Y=Bottom+(Top−Bottom)/(1+10^((Log IC50−X)*Hill Slope)) • X: log of Inhibitor concentration; Y: % Inhibition.

Chain of MNK2 (Q9HBH9 whole entry): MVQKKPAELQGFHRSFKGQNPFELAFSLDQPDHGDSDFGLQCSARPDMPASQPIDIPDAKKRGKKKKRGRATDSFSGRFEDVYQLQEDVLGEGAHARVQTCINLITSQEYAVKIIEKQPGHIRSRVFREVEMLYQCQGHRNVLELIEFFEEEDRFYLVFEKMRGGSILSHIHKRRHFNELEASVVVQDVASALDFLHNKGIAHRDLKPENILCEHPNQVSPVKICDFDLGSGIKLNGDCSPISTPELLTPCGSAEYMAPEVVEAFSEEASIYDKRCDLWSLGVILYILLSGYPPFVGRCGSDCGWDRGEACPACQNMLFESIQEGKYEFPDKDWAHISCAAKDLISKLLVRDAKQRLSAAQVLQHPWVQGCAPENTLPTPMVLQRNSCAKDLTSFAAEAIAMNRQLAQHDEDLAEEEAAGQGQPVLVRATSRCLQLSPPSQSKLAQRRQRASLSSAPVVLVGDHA

Compound: Cc1cc(Nc2cc(Nc3ccc(N4C[C@@H](C)N[C@@H](C)C4)cn3)ncn2)[n+]([O-])c2c1C(=O)NC21CCCCC1 [Compound XXIX-AAN, 2′-((6-((5-(cis-3,5-dimethylpiperazin-1-yl)pyridin-2-yl)amino)pyrimidin-4-yl)amino)-4′-methyl-5′-oxo-5′,6′-dihydrospiro[cyclohexane-1,7′-pyrrolo[3,4-b]pyridine]1′-oxide]
IC50 (MNK2): 0.0001 to 0.01 µM | IC50 (TMD-8 cell p-IF4E): 0.0001 to 0.01 µM

Compound: Cc1cc(Nc2cc(Nc3ccc(N4CCN(CCO)CC4)cn3)ncn2)[n+]([O-])c2c1C(=O)NC21CCCCC1 [Compound XXIX-AAP, 2′-((6-((5-(4-(2-hydroxyethyl)piperazin-1-yl)pyridin-2-yl)amino)pyrimidin-4-yl)amino)-4′-methyl-5′-oxo-5′,6′-dihydrospiro[cyclohexane-1,7′-pyrrolo[3,4-b]pyridine]1′-oxide formate salt]
IC50 (MNK2): 0.0001 to 0.01 µM | IC50 (TMD-8 cell p-IF4E): 0.0001 to 0.01 µM

Compound: O=C1NC2(CCCCC2)c2cc(Nc3ccnc(N[C@H]4CCOC4)c3)sc21 [Compound XXIV-B, (S)-2′-((2-((tetrahydrofuran-3-yl)amino)pyridin-4-yl)amino)spiro[cyclohexane-1,4′-thieno[2,3-c]pyrrol]-6′(5′H)-one]
IC50 (MNK2): 0.0001 to 0.01 µM | IC50 (TMD-8 cell p-IF4E): 0.01 to 0.1 µM

Compound: O=C1NC2(CCCCC2)c2cc(Nc3cc(Nc4cc[nH]n4)ncn3)sc21 [Compound XXIII-U, 2′-((6-((1H-pyrazol-3-yl)amino)pyrimidin-4-yl)amino)spiro[cyclohexane-1,4′-thieno[2,3-c]pyrrol]-6′(5′H)-one]
IC50 (MNK2): 0.0001 to 0.01 µM | IC50 (TMD-8 cell p-IF4E): 0.01 to 0.1 µM

Compound: Cc1cc(Nc2cc(Nc3ncn(C)n3)ncn2)[n+]([O-])c2c1C(=O)NC21CCCCC1 [Compound XXIX-AD, 4′-methyl-2′-((6-((1-methyl-Ill-1,2,4-triazol-3-yl)amino)pyrimidin-4-yl)amino)-5′-oxo-5′,6′-dihydrospiro[cyclohexane-1,7′-pyrrolo[3,4-b]pyridine] 1′-oxide]
IC50 (MNK2): 0.0001 to 0.01 µM | IC50 (TMD-8 cell p-IF4E): 0.01 to 0.1 µM

Compound: Cc1ccnc(Nc2cc(Nc3cc(C)c4c([n+]3[O-])C3(CCCCC3)NC4=O)ncn2)c1 [Compound XXIX-AAI, 4′-methyl-2′-((6-((4-methylpyridin-2-yl)amino)pyrimidin-4-yl)amino)-5′-oxo-5′,6′-dihydrospiro[cyclohexane-1,7′-pyrrolo[3,4-b]pyridine] 1′-oxide]
IC50 (MNK2): 0.0001 to 0.01 µM | IC50 (TMD-8 cell p-IF4E): 0.0001 to 0.01 µM

Compound: Cc1cccc(Nc2cc(Nc3cc(C)c4c([n+]3[O-])C3(CCCCC3)NC4=O)ncn2)n1 [Compound XXIX-AL, 4′-methyl-2′-((6-((6-methylpyridin-2-yl)amino)pyrimidin-4-yl)amino)-5′-oxo-5′,6′-dihydrospiro[cyclohexane-1,7′-pyrrolo[3,4-b]pyridine] 1′-oxide]
IC50 (MNK2): 0.0001 to 0.01 µM | IC50 (TMD-8 cell p-IF4E): 0.01 to 0.1 µM

Compound: CNC(=O)Nc1cc(Nc2cc3c(s2)C(=O)NC32CCCCC2)ncn1 [Compound XXIV-G, 1-methyl-3-(6-((6′-oxo-5′,6′-dihydrospiro[cyclohexane-1,4′-thieno[2,3-c]pyrrol]-2′-yl)amino)pyrimidin-4-yl)urea]
IC50 (MNK2): 0.0001 to 0.01 µM | IC50 (TMD-8 cell p-IF4E): 0.1 to 1 µM

Compound: O=C1NC2(CCCCC2)c2cc(Nc3cc(NC4CCOC4)ncn3)sc21 (stereo not drawn) [Compound XXIII-Y, 2′-((6-((tetrahydrofuran-3-yl)amino)pyrimidin-4-yl)amino)spiro[cyclohexane-1,4′-thieno[2,3-c]pyrrol]-6′(5′H)-one]
IC50 (MNK2): 0.0001 to 0.01 µM | IC50 (TMD-8 cell p-IF4E): 0.01 to 0.1 µM

Compound: Cc1cc(Nc2cc(N)ncn2)[n+]([O-])c2c1C(=O)NC21CCCCC1 [Compound XXIX, 2′-((6-Aminopyrimidin-4-yl)amino)-4′-methyl-5′-oxo-5′,6′-dihydrospiro [cyclohexane-1,7′-pyrrolo[3,4-b]pyridine] 1′-oxide]
IC50 (MNK2): 0.0001 to 0.01 µM | IC50 (TMD-8 cell p-IF4E): 0.01 to 0.1 µM

Compound: CN1CCN(c2ccc(Nc3cc(Nc4cc5c(s4)C(=O)NC54CCCCC4)ncn3)nc2)CC1 [Compound XXIII-T, 2′-((6-((5-(4-methylpiperazin-1-yl)pyridin-2-yl)amino)pyrimidin-4-yl)amino)spiro[cyclohexane-1,4′-thieno[2,3-c]pyrrol]-6′(5′H)-one]
IC50 (MNK2): 0.0001 to 0.01 µM | IC50 (TMD-8 cell p-IF4E): 0.01 to 0.1 µM

Compound: Cc1cc(Nc2cc(Nc3cc[nH]n3)ncn2)[n+]([O-])c2c1C(=O)NC21CCCCC1 [Compound XXIX-AS, 2′-((6-((1H-pyrazol-3-yl)amino)pyrimidin-4-yl)amino)-4′-methyl-5′-oxo-5′,6′-dihydrospiro[cyclohexane-1,7′-pyrrolo[3,4-b]pyridine] 1′-oxide]
IC50 (MNK2): 0.0001 to 0.01 µM | IC50 (TMD-8 cell p-IF4E): 0.0001 to 0.01 µM

Compound: Cc1cc(Nc2cc(Nc3ccc(N4CCN(C)CC4)cn3)ncn2)[n+]([O-])c2c1C(=O)NC21CCCCC1 [Compound XXIX-AO, 4′-methyl-2′-[(6-{[5-(4-methylpiperazin-1-yl)pyridin-2-yl]amino}pyrimidin-4-yl)amino]-5′-oxo-5′,6′-dihydrospiro[cyclohexane-1,7′-pyrrolo[3,4-b]pyridin]-1′-ium-1′-olate]
IC50 (MNK2): 0.0001 to 0.01 µM | IC50 (TMD-8 cell p-IF4E): 0.0001 to 0.01 µM

Compound: Cc1cc(Nc2cc(Nc3ncc(F)cc3F)ncn2)[n+]([O-])c2c1C(=O)NC21CCCCC1 [Compound XXIX-AM, 2′-((6-((3,5-difluoropyridin-2-yl)amino)pyrimidin-4-yl)amino)-4′-methyl-5′-oxo-5′,6′-dihydrospiro[cyclohexane-1,7′-pyrrolo[3,4-b]pyridine] 1′-oxide]
IC50 (MNK2): 0.0001 to 0.01 µM | IC50 (TMD-8 cell p-IF4E): 0.01 to 0.1 µM

Compound: Cc1ccc(Nc2cc(Nc3cc(C)c4c([n+]3[O-])C3(CCCCC3)NC4=O)ncn2)nc1 [Compound XXIX-AAA, 4′-methyl-2′-((6-((5-methylpyridin-2-yl)amino)pyrimidin-4-yl)amino)-5′-oxo-5′,6′-dihydrospiro[cyclohexane-1,7′-pyrrolo[3,4-b]pyridine] 1′-oxide]
IC50 (MNK2): 0.0001 to 0.01 µM | IC50 (TMD-8 cell p-IF4E): 0.0001 to 0.01 µM

Now from value to compound:

IC50 (MNK2): 0.0001 to 0.01 µM | IC50 (TMD-8 cell p-IF4E): 0.0001 to 0.01 µM
Compound: Cn1ccc(Nc2cc(Nc3nc4c(s3)C(=O)NC43CCCCC3)ncn2)n1 [Compound XXVIII-M, 2′-((6-((1-methyl-1H-pyrazol-3-yl)amino)pyrimidin-4-yl)amino)spiro[cyclohexane-1,4′-pyrrolo[3,4-d]thiazol]-6′(5′H)-one]

IC50 (MNK2): 0.0001 to 0.01 µM | IC50 (TMD-8 cell p-IF4E): 0.01 to 0.1 µM
Compound: Cn1cnc(Nc2cc(Nc3nc4c(s3)C(=O)NC43CCCCC3)ncn2)n1 [Compound XXVIII-K, 2′-((6-((1-methyl-1H-1,2,4-triazol-3-yl)amino)pyrimidin-4-yl)amino)spiro[cyclohexane-1,4′-pyrrolo[3,4-d]thiazol]-6′(5′H)-one]

IC50 (MNK2): 0.0001 to 0.01 µM | IC50 (TMD-8 cell p-IF4E): 0.01 to 0.1 µM
Compound: CC(=O)N(C)c1ccnc(Nc2cc(Nc3nc4c(s3)C(=O)NC43CCCCC3)ncn2)c1 [Compound XXVIII-P, N-methyl-N-(2-((6-((6′-oxo-5′,6′-dihydrospiro[cyclohexane-1,4′-pyrrolo[3,4-d]thiazol]-2′-yl)amino)pyrimidin-4-yl)amino)pyridin-4-yl)acetamide]

IC50 (MNK2): 0.01 to 0.1 µM | IC50 (TMD-8 cell p-IF4E): 0.1 to 1 µM
Compound: CN(C)[C@H]1CCN(C(=O)C2CCc3c(sc4ncnc(Nc5cc6c(s5)C(=O)NC65CCCCC5)c34)C2)C1 (stereo partly drawn) [Compound XXV, 2′-((7-((S)-3-(Dimethylamino)pyrrolidine-1-carbonyl)-5,6,7,8-tetrahydrobenzo[4,5]thieno[2,3-d]pyrimidin-4-yl)amino)spiro[cyclohexane-1,4′-thieno[2,3-c]pyrrol]-6′(5′H)-one]

IC50 (MNK2): 0.0001 to 0.01 µM | IC50 (TMD-8 cell p-IF4E): 0.0001 to 0.01 µM
Compound: Cc1cc(Nc2cc(Nc3ccccn3)ncn2)[n+]([O-])c2c1C(=O)NC21CCCCC1 [Compound XXIX-D, 4′-methyl-5′-oxo-2′-((6-(pyridin-2-ylamino)pyrimidin-4-yl)amino)-5′,6′-dihydrospiro[cyclohexane-1,7′-pyrrolo[3,4-b]pyridine] 1′-oxide]

IC50 (MNK2): 0.0001 to 0.01 µM | IC50 (TMD-8 cell p-IF4E): 0.01 to 0.1 µM
Compound: O=C1NC2(CCCCC2)c2nc(Nc3cc(NC(=O)C4CCCC4)ncn3)sc21 [Compound XXVIII-C, N-(6-((6′-oxo-5′,6′-dihydrospiro[cyclohexane-1,4′-pyrrolo[3,4-d]thiazol]-2′-yl)amino)pyrimidin-4-yl)cyclopentanecarboxamide]

IC50 (MNK2): 0.0001 to 0.01 µM | IC50 (TMD-8 cell p-IF4E): 0.0001 to 0.01 µM
Compound: CN1CCN(c2ccc(Nc3cc(Nc4nc5c(s4)C(=O)NC54CCCCC4)ncn3)nc2)CC1 [Compound XXVIII-R, 2′-((6-((5-(4-methylpiperazin-1-yl)pyridin-2-yl)amino)pyrimidin-4-yl)amino)spiro [cyclohexane-1,4′-pyrrolo[3,4-d]thiazol]-6′(5′H)-one]

IC50 (MNK2): 0.01 to 0.1 µM | IC50 (TMD-8 cell p-IF4E): 0.1 to 1 µM
Compound: C[C@@H]1COCCN1C(=O)C1CCc2c(sc3ncnc(Nc4cc5c(s4)C(=O)NC54CCCCC4)c23)C1 (stereo partly drawn) [Compound XXV-C, 2′-((7-((R)-3-Methylmorpholine-4-carbonyl)-5,6,7,8-tetrahydrobenzo[4,5]thieno[2,3-d]pyrimidin-4-yl)amino)spiro[cyclohexane-1,4′-thieno[2,3-c]pyrrol]-6′(5′H)-one]

IC50 (MNK2): 0.0001 to 0.01 µM | IC50 (TMD-8 cell p-IF4E): 0.0001 to 0.01 µM
Compound: O=C1NC2(CCCCC2)c2nc(Nc3cc(Nc4ccc(N5CCOCC5)cn4)ncn3)sc21 [Compound XXVIII-Q, 2′-((6-((5-morpholinopyridin-2-yl)amino)pyrimidin-4-yl)amino)spiro[cyclohexane-1,4′-pyrrolo[3,4-d]thiazol]-6′(5′H)-one]
